Consider 20 compounds from US10668067B2, “Pyridine sulfonamides” (AMGEN INC., priority 2016, dated 2020).

pIC50: −log10 of the molar value.

human Nav1.7, sequence (Q15858 whole entry): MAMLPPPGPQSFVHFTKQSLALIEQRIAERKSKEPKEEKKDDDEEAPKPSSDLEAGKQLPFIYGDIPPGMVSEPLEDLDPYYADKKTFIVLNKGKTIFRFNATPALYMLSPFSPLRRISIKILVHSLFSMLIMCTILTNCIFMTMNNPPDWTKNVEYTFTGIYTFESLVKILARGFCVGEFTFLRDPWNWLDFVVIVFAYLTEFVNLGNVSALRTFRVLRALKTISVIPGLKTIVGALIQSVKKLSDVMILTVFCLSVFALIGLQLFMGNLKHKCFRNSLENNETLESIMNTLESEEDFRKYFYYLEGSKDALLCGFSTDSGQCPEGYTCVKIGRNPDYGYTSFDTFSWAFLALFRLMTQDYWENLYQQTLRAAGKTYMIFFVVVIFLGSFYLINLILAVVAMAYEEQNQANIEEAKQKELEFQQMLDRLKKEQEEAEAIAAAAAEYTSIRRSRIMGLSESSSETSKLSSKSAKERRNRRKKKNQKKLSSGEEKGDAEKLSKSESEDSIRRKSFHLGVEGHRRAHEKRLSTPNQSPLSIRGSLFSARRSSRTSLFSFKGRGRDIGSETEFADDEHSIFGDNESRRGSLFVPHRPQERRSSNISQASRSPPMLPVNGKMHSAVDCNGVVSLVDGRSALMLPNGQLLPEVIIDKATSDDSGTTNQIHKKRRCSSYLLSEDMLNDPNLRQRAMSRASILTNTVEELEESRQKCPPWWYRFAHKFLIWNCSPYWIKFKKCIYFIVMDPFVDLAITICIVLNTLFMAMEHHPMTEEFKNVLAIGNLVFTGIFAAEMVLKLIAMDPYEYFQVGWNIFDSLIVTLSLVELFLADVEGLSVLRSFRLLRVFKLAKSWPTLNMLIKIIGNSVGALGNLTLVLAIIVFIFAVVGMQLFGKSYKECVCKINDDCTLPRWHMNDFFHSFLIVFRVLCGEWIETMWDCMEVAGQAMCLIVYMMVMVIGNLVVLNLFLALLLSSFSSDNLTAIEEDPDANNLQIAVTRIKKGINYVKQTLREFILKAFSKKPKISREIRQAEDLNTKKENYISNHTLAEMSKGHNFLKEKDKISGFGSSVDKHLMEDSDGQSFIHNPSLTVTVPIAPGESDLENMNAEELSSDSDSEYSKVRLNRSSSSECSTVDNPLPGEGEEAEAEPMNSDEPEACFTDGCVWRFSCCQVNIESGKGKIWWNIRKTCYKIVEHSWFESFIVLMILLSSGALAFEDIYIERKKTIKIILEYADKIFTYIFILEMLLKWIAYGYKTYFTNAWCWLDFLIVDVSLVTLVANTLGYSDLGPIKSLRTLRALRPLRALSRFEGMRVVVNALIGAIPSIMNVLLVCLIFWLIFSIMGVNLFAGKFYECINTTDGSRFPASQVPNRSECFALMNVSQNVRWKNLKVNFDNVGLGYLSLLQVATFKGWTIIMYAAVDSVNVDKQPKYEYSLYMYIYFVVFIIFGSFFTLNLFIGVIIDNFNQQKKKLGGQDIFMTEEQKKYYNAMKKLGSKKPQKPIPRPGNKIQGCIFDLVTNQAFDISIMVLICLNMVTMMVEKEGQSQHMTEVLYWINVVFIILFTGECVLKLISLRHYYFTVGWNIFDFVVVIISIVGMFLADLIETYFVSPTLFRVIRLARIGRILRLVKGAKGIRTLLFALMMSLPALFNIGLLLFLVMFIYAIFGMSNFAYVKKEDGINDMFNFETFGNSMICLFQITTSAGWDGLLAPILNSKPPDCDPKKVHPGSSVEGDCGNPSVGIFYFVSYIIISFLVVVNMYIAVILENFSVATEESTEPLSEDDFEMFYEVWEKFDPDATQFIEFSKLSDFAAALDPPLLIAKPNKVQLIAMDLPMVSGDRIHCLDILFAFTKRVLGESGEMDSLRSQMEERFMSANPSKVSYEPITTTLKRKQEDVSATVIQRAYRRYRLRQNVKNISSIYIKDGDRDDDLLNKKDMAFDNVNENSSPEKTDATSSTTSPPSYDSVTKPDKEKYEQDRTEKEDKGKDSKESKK

The assay concerns the target human Nav1.7 (Homo sapiens (Human), UniProt Q15858). Kind of assay: Nav 1.7 In Vitro PX Assay (PatchXpress whole cell voltage clamp). The assay is classed as cell-based. Particulars: in-vitro Nav 1.7 PX data. The method, boiled down:
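Partially inactivated channels (20–50% inactivation at holding potential) probed by 20 ms pulses to −10 mV repeated at 0.1 Hz, in stable human Nav1.7 HEK293 cells.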
Consider `CNC(=O)N(c1ccc(S(=O)(=O)Nc2ncccn2)cn1)c1cc(F)c(-c2cccc(OC(F)(F)F)c2)cc1OC` [Example 1-84, 6-((2-fluoro-5-methoxy-3′-(trifluoromethoxy)-4-biphenylyl)(methylcarbamoyl)amino)-N-2-pyrimidinyl-3-pyridinesulfonamide], for which the pIC50 was 7.21.
Under `CNC(=O)N(c1ccc(S(=O)(=O)Nc2nocc2C)cn1)c1cc(F)c(-c2ccc(F)c(C(F)(F)F)c2)cc1OC` [Example 2-13, 6-(1-(2,4′-difluoro-5-methoxy-3′-(trifluoromethyl)-[1,1′-biphenyl]-4-yl)-3-methylureido)-N-(4-methylisoxazol-3-yl)pyridine-3-sulfonamide] stands 6.94; under `CNC(=O)N(c1ccc(S(=O)(=O)Nc2ccon2)cn1)c1cc(F)c(-c2cccc(C(F)(F)F)c2)cc1OC` [Example 1-4, 6-((2-fluoro-5-methoxy-3′-(trifluoromethyl)-4-biphenylyl)(methylcarbamoyl)amino)-N-3-isoxazolyl-3-pyridinesulfonamide], 7.48; under `CNC(=O)N(c1ccc(S(=O)(=O)Nc2ccon2)cn1)c1cc(F)c(-c2ccc(F)c(C(F)(F)F)c2)cc1OC` [Example 1-26, 6-((2,4′-difluoro-5-methoxy-3′-(trifluoromethyl)-4-biphenylyl)(methylcarbamoyl)amino)-N-3-isoxazolyl-3-pyridinesulfonamide], 7.92.
To `CNC(=O)N(c1ccc(S(=O)(=O)Nc2ncccn2)cn1)c1cc(Cl)c(-c2cc(OC)cc(OC)c2)cc1OC` [Example 1-79, 6-((2-chloro-3′,5,5′-trimethoxy-4-biphenylyl)(methylcarbamoyl)amino)-N-2-pyrimidinyl-3-pyridinesulfonamide] belongs 6.78; to `CNC(=O)N(c1ccc(S(=O)(=O)Nc2cccnn2)cn1)c1cc(F)c(-c2ccc(F)c(OC(F)(F)F)c2)cc1OC` [Example 3-13, 6-((2,4′-difluoro-5-methoxy-3′-(trifluoromethoxy)-4-biphenylyl)(methylcarbamoyl)amino)-N-3-pyridazinyl-3-pyridinesulfonamide], 8.15.
To `CNC(=O)N(c1ccc(S(=O)(=O)Nc2ccon2)cn1)c1cc(Cl)c(-c2ccc(F)c(OC(F)(F)F)c2)cc1OC` [Example 1-69, 6-((2-chloro-4′-fluoro-5-methoxy-3′-(trifluoromethoxy)-4-biphenylyl)(methylcarbamoyl)amino)-N-3-isoxazolyl-3-pyridinesulfonamide] belongs 8.22; to `CNC(=O)N(c1ccc(S(=O)(=O)Nc2ccon2)cn1)c1cc(Cl)c(-c2cccc(C(F)(F)F)c2)cc1OC` [Example 1-31, 6-((2-chloro-5-methoxy-3′-(trifluoromethyl)-4-biphenylyl)(methylcarbamoyl)amino)-N-3-isoxazolyl-3-pyridinesulfonamide], 7.80; to `CNC(=O)N(c1ccc(S(=O)(=O)Nc2ccon2)cn1)c1cc(-c2cc(Cl)cc(OC)c2)ccc1OC` [Example 4-1, 6-((3′-chloro-4,5′-dimethoxy-3-biphenylyl)(methylcarbamoyl)amino)-N-3-isoxazolyl-3-pyridinesulfonamide], 6.34.
Regarding `CNC(=O)N(c1ccc(S(=O)(=O)Nc2ccon2)cn1)c1cc(Cl)c(-c2cc(F)cc(C(F)(F)F)c2)cc1OC` [Example 1-49, 6-((2-chloro-3′-fluoro-5-methoxy-5′-(trifluoromethyl)-4-biphenylyl)(methylcarbamoyl)amino)-N-3-isoxazolyl-3-pyridinesulfonamide], the negative logarithm of the IC50 (pIC50) is 7.55.
`CNC(=O)N(c1ccc(S(=O)(=O)Nc2ncccn2)cn1)c1cc(F)c(-c2ccc(F)c(OCC(F)(F)F)c2)cc1OC` [Example 1-88, 6-((2,4′-difluoro-5-methoxy-3′-(2,2,2-trifluoroethoxy)-4-biphenylyl)(methylcarbamoyl)amino)-N-2-pyrimidinyl-3-pyridinesulfonamide] had a negative logarithm of the IC50 (pIC50) of 7.40.
On to `CNC(=O)N(c1ccc(S(=O)(=O)Nc2cnsn2)cn1)c1cc(Cl)c(-c2ccc(F)c(C(F)(F)F)c2)cc1OC` [Example 3-8, 6-((2-chloro-4′-fluoro-5-methoxy-3′-(trifluoromethyl)-4-biphenylyl)(methylcarbamoyl)amino)-N-1,2,5-thiadiazol-3-yl-3-pyridinesulfonamide], for which the pIC50 is 7.85.
In turn, `COc1cc(-c2ccc(Cl)c(F)c2)c(Cl)cc1N(C(N)=O)c1ccc(S(=O)(=O)Nc2ccon2)cn1` [Example 5-2, 6-(carbamoyl(2,4′-dichloro-3′-fluoro-5-methoxy-4-biphenylyl)amino)-N-3-isoxazolyl-3-pyridinesulfonamide] had a pIC50 of 8.00.
To `CNC(=O)N(c1ccc(S(=O)(=O)Nc2cccc(F)n2)cn1)c1cc(Cl)c(-c2ccc(F)c(OCC(F)(F)F)c2)cc1OC` [Example 3-3, 6-((2-chloro-4′-fluoro-5-methoxy-3′-(2,2,2-trifluoroethoxy)-4-biphenylyl)(methylcarbamoyl)amino)-N-(6-fluoro-2-pyridinyl)-3-pyridinesulfonamide] belongs 7.14; to `CNC(=O)N(c1ccc(S(=O)(=O)Nc2ccon2)cn1)c1cc(Cl)c(-c2cc(Cl)ccc2C)cc1OC` [Example 1-34, 6-((2,5′-dichloro-5-methoxy-2′-methyl-4-biphenylyl)(methylcarbamoyl)amino)-N-3-isoxazolyl-3-pyridinesulfonamide], 7.57.
For the compound `CNC(=O)N(c1ccc(S(=O)(=O)Nc2ccon2)cn1)c1cc(-c2cccc(F)c2)ccc1OC` [Example 4-3, 6-((3′-fluoro-4-methoxy-3-biphenylyl)(methylcarbamoyl)amino)-N-3-isoxazolyl-3-pyridinesulfonamide], the negative logarithm of the IC50 (pIC50) is 5.62.
Compound `CNC(=O)N(c1ccc(S(=O)(=O)Nc2cnsn2)cn1)c1cc(Cl)c(-c2ccc(F)c(OCC(F)(F)F)c2)cc1OC` [Example 3-2, 6-((2-chloro-4′-fluoro-5-methoxy-3′-(2,2,2-trifluoroethoxy)-4-biphenylyl)(methylcarbamoyl)amino)-N-1,2,5-thiadiazol-3-yl-3-pyridinesulfonamide] had a pIC50 of 7.51.
To `CNC(=O)N(c1ccc(S(=O)(=O)Nc2ccon2)cn1)c1cc(F)c(CCC(F)(F)F)cc1OC` [Example 8, 6-((5-fluoro-2-methoxy-4-(3,3,3-trifluoropropyl)phenyl)(methylcarbamoyl)amino)-N-3-isoxazolyl-3-pyridinesulfonamide] belongs 6.07.
As to `CNC(=O)N(c1ccc(S(=O)(=O)Nc2ccncn2)cn1)c1cc(Cl)c(-c2ccc(F)c(OCC(F)(F)F)c2)cc1OC` [Example 3-6, 6-((2-chloro-4′-fluoro-5-methoxy-3′-(2,2,2-trifluoroethoxy)-4-biphenylyl)(methylcarbamoyl)amino)-N-4-pyrimidinyl-3-pyridinesulfonamide], the negative logarithm of the IC50 (pIC50) is 7.29.
Under `CNC(=O)N(c1ccc(S(=O)(=O)Nc2ncccn2)cn1)c1cc(Cl)c(-c2ccc(F)c(F)c2)cc1OC` [Example 1-76, 6-((2-chloro-3′,4′-difluoro-5-methoxy-4-biphenylyl)(methylcarbamoyl)amino)-N-2-pyrimidinyl-3-pyridinesulfonamide] stands 6.94.

As usually defined, the pIC50 is the IC50 on a negative log10 scale, so that one unit is a factor of ten.
